Source: ChEMBL document CHEMBL4257522, “Synthesis and preliminary anti-inflammatory and anti-bacterial evaluation of some diflunisal aza-analogs” (Medchemcomm, 2018)
The source made the active and inactive calls. The calls are words filed in the database; no cut-off is given here.

Columns and labels:
[1] = test system: Macrophage cell line; test: Cytotoxicity against human PBMC-differentiated macrophages treated for 24 hrs followed by compound washout and measured after 48 hrs by MTT assay; type: cell-based
[2] = test system: Macrophage cell line; test: Antiinflammatory activity in human PBMC-differentiated macrophages assessed as inhibition of LPS-induced IL-8 production at 0.01 to 10 uM measured after 24 hrs by ELISA; type: functional, cell-based
[3] = test system: Macrophage cell line; test: Antiinflammatory activity in human PBMC-differentiated macrophages assessed as inhibition of LPS-induced prostaglandin production at 0.01 to 10 uM measured after 24 hrs by ELISA; type: functional, cell-based
[4] = test system: Macrophage cell line; test: Induction of TNFalpha production in human PBMC-differentiated macrophages after 24 hrs by ELISA; type: cell-based
[5] = test system: Macrophage cell line; test: Induction of IL-8 production in human PBMC-differentiated macrophages after 24 hrs by ELISA; type: cell-based
[6] = test system: Macrophage cell line; test: Induction of IL-1beta production in human PBMC-differentiated macrophages after 24 hrs by ELISA; type: cell-based
[7] = test system: Macrophage cell line; test: Induction of prostaglandin production in human PBMC-differentiated macrophages after 24 hrs by ELISA; type: cell-based
[8] = test system: Staphylococcus aureus; test: Toxicity in Staphylococcus aureus ATCC 33592 up to 32 uM measured after 16 hrs; type: organism-based
[9] = test system: Streptococcus pyogenes; test: Toxicity in Streptococcus pyogenes ATCC 14289 up to 32 uM measured after 16 hrs; type: organism-based
[10] = test system: Klebsiella pneumoniae; test: Toxicity in Klebsiella pneumoniae ATCC 13883 up to 32 uM measured after 16 hrs; type: organism-based
[11] = test system: Enterococcus faecium; test: Toxicity in Enterococcus faecium ATCC 700221 up to 32 uM measured after 16 hrs; type: organism-based; details: in vitro
[12] = test system: Escherichia coli; test: Toxicity in Escherichia coli ATCC 43894 up to 32 uM measured after 16 hrs; type: organism-based
[13] = test system: Staphylococcus aureus; test: Potentiation of methicillin-induced antibacterial activity against Staphylococcus aureus ATCC 33592 assessed as minimum modulatory concentration up to 32 uM measured after 16 hrs in presence of MIC/4 methicillin; type: functional; details: ATCC 33592, 16 h, read-out: MEC
[14] = test system: Staphylococcus aureus; test: Potentiation of geneticin-induced antibacterial activity against Staphylococcus aureus ATCC 33592 assessed as minimum modulatory concentration up to 32 uM measured after 16 hrs in presence of MIC/4 geneticin; type: functional; details: ATCC 33592, 16 h, read-out: MEC
[15] = test system: Staphylococcus aureus; test: Potentiation of ciprofloxacin-induced antibacterial activity against Staphylococcus aureus ATCC 33592 assessed as minimum modulatory concentration up to 32 uM measured after 16 hrs in presence of MIC/4 ciprofloxacin; type: functional; details: ATCC 33592, 16 h, read-out: MEC
[16] = test system: Staphylococcus aureus; test: Potentiation of tetracycline-induced antibacterial activity against Staphylococcus aureus ATCC 33592 assessed as minimum modulatory concentration up to 32 uM measured after 16 hrs in presence of MIC/4 tetracycline; type: functional; details: ATCC 33592, 16 h, read-out: MEC
[17] = test system: Staphylococcus aureus; test: Potentiation of erythromycin-induced antibacterial activity against Staphylococcus aureus ATCC 33592 assessed as minimum modulatory concentration up to 32 uM measured after 16 hrs in presence of MIC/4 erythromycin; type: functional; details: ATCC 33592, 16 h, read-out: MEC
[18] = test system: Streptococcus pyogenes; test: Potentiation of methicillin-induced antibacterial activity against Streptococcus pyogenes ATCC 14289 assessed as minimum modulatory concentration up to 32 uM measured after 16 hrs in presence of MIC/4 methicillin; type: functional; details: ATCC 14289, 16 h, read-out: MEC
[19] = test system: Streptococcus pyogenes; test: Potentiation of geneticin-induced antibacterial activity against Streptococcus pyogenes ATCC 14289 assessed as minimum modulatory concentration up to 32 uM measured after 16 hrs in presence of MIC/4 geneticin; type: functional; details: ATCC 14289, 16 h, read-out: MEC
[20] = test system: Streptococcus pyogenes; test: Potentiation of erythromycin-induced antibacterial activity against Streptococcus pyogenes ATCC 14289 assessed as minimum modulatory concentration up to 32 uM measured after 16 hrs in presence of MIC/4 erythromycin; type: functional; details: ATCC 14289, 16 h, read-out: MEC
[21] = test system: Klebsiella pneumoniae; test: Potentiation of methicillin-induced antibacterial activity against Klebsiella pneumoniae ATCC 13883 assessed as minimum modulatory concentration up to 32 uM measured after 16 hrs in presence of MIC/4 methicillin; type: functional; details: ATCC 13883, 16 h, read-out: MEC
[22] = test system: Klebsiella pneumoniae; test: Potentiation of geneticin-induced antibacterial activity against Klebsiella pneumoniae ATCC 13883 assessed as minimum modulatory concentration up to 32 uM measured after 16 hrs in presence of MIC/4 geneticin; type: functional; details: ATCC 13883, 16 h, read-out: MEC
[23] = test system: Klebsiella pneumoniae; test: Potentiation of ciprofloxacin-induced antibacterial activity against Klebsiella pneumoniae ATCC 13883 assessed as minimum modulatory concentration up to 32 uM measured after 16 hrs in presence of MIC/4 ciprofloxacin; type: functional; details: ATCC 13883, 16 h, read-out: MEC
[24] = test system: Klebsiella pneumoniae; test: Potentiation of tetracycline-induced antibacterial activity against Klebsiella pneumoniae ATCC 13883 assessed as minimum modulatory concentration up to 32 uM measured after 16 hrs in presence of MIC/4 tetracycline; type: functional; details: ATCC 13883, 16 h, read-out: MEC
[25] = test system: Klebsiella pneumoniae; test: Potentiation of erythromycin-induced antibacterial activity against Klebsiella pneumoniae ATCC 13883 assessed as minimum modulatory concentration up to 32 uM measured after 16 hrs in presence of MIC/4 erythromycin; type: functional; details: ATCC 13883, 16 h, read-out: MEC
[26] = test system: Enterococcus faecium; test: Potentiation of methicillin-induced antibacterial activity against Enterococcus faecium ATCC 700221 assessed as minimum modulatory concentration up to 32 uM measured after 16 hrs in presence of MIC/4 methicillin; type: functional; details: ATCC 700221, 16 h, read-out: MEC
[27] = test system: Enterococcus faecium; test: Potentiation of geneticin-induced antibacterial activity against Enterococcus faecium ATCC 700221 assessed as minimum modulatory concentration up to 32 uM measured after 16 hrs in presence of MIC/4 geneticin; type: functional; details: ATCC 700221, 16 h, read-out: MEC
[28] = test system: Enterococcus faecium; test: Potentiation of tetracycline-induced antibacterial activity against Enterococcus faecium ATCC 700221 assessed as minimum modulatory concentration up to 32 uM measured after 16 hrs in presence of MIC/4 tetracycline; type: functional; details: ATCC 700221, 16 h, read-out: MEC
[29] = test system: Enterococcus faecium; test: Potentiation of erythromycin-induced antibacterial activity against Enterococcus faecium ATCC 700221 assessed as minimum modulatory concentration up to 32 uM measured after 16 hrs in presence of MIC/4 erythromycin; type: functional; details: ATCC 700221, 16 h, read-out: MEC
[30] = test system: Pseudomonas aeruginosa; test: Potentiation of geneticin-induced antibacterial activity against Pseudomonas aeruginosa ATCC BAA-2108 assessed as minimum modulatory concentration up to 32 uM measured after 16 hrs in presence of MIC/4 geneticin; type: functional; details: ATCC BAA-2108, 16 h, read-out: MEC
[31] = test system: Pseudomonas aeruginosa; test: Potentiation of erythromycin-induced antibacterial activity against Pseudomonas aeruginosa ATCC BAA-2108 assessed as minimum modulatory concentration up to 32 uM measured after 16 hrs in presence of MIC/4 erythromycin; type: functional; details: ATCC BAA-2108, 16 h, read-out: MEC
[32] = test system: Escherichia coli; test: Potentiation of geneticin-induced antibacterial activity against Escherichia coli ATCC 43894 assessed as minimum modulatory concentration up to 32 uM measured after 16 hrs in presence of MIC/4 geneticin; type: functional; details: ATCC 43894, 16 h, read-out: MEC
[33] = test system: Escherichia coli; test: Potentiation of tetracycline-induced antibacterial activity against Escherichia coli ATCC 43894 assessed as minimum modulatory concentration up to 32 uM measured after 16 hrs in presence of MIC/4 tetracycline; type: functional; details: ATCC 43894, 16 h, read-out: MEC
[34] = test system: Escherichia coli; test: Potentiation of erythromycin-induced antibacterial activity against Escherichia coli ATCC 43894 assessed as minimum modulatory concentration up to 32 uM measured after 16 hrs in presence of MIC/4 erythromycin; type: functional; details: ATCC 43894, 16 h, read-out: MEC

Compound	IC50 [1]	inhibition [2]	Activity [4]	Activity [5]	Activity [6]	Activity [7]	Activity [8]	Activity [9]	Activity [10]	Activity [11]	Activity [12]	minimal effective concentration [13]	minimal effective concentration [14]	minimal effective concentration [15]	minimal effective concentration [16]	minimal effective concentration [17]	minimal effective concentration [18]	minimal effective concentration [19]	minimal effective concentration [20]	minimal effective concentration [21]	other results
COc1cccc(-c2cc(C(=O)[O-])c(O)c[n+]2C)c1	96 µM	inactive	Non-Toxic	Non-Toxic	Non-Toxic	Non-Toxic	Non-Toxic	Non-Toxic	Non-Toxic	Non-Toxic	Non-Toxic	> 32 µM	> 32 µM	> 32 µM	> 32 µM	> 32 µM	> 32 µM	> 32 µM	> 32 µM	> 32 µM	inhibition [3]: inactive; minimal effective concentration [22]: > 32 µM; minimal effective concentration [23]: > 32 µM; minimal effective concentration [24]: > 32 µM; minimal effective concentration [25]: > 32 µM; minimal effective concentration [26]: > 32 µM; minimal effective concentration [27]: > 32 µM; minimal effective concentration [28]: > 32 µM; minimal effective concentration [29]: > 32 µM; minimal effective concentration [30]: > 32 µM; minimal effective concentration [31]: > 32 µM; minimal effective concentration [32]: > 32 µM; minimal effective concentration [33]: > 32 µM; minimal effective concentration [34]: > 32 µM
O=C(O)c1cc(-c2ccccc2)nc(-c2ccccc2)c1O	81.2 µM	inactive	Non-Toxic	Non-Toxic	Non-Toxic	Non-Toxic	Non-Toxic	Non-Toxic	Non-Toxic	Non-Toxic	Non-Toxic	4 µM	8 µM	16 µM	2 µM	2 µM	2 µM	4 µM	4 µM	> 32 µM	minimal effective concentration [22]: > 32 µM; minimal effective concentration [23]: > 32 µM; minimal effective concentration [24]: > 32 µM; minimal effective concentration [25]: > 32 µM; minimal effective concentration [26]: 2 µM; minimal effective concentration [27]: 8 µM; minimal effective concentration [28]: 2 µM; minimal effective concentration [29]: 2 µM; minimal effective concentration [30]: > 32 µM; minimal effective concentration [31]: 8 µM; minimal effective concentration [32]: > 32 µM; minimal effective concentration [33]: > 32 µM; minimal effective concentration [34]: > 32 µM
O=C(O)c1ccnc(Cc2ccccc2)c1O	> 100 µM	inactive	Non-Toxic	Non-Toxic	Non-Toxic	Non-Toxic	Non-Toxic	Non-Toxic	Non-Toxic	Non-Toxic	Non-Toxic	> 32 µM	> 32 µM	> 32 µM	> 32 µM	> 32 µM	> 32 µM	> 32 µM	> 32 µM	> 32 µM	inhibition [3]: inactive; minimal effective concentration [22]: > 32 µM; minimal effective concentration [23]: > 32 µM; minimal effective concentration [24]: > 32 µM; minimal effective concentration [25]: > 32 µM; minimal effective concentration [26]: > 32 µM; minimal effective concentration [27]: > 32 µM; minimal effective concentration [28]: > 32 µM; minimal effective concentration [29]: > 32 µM; minimal effective concentration [30]: > 32 µM; minimal effective concentration [31]: > 32 µM; minimal effective concentration [32]: > 32 µM; minimal effective concentration [33]: > 32 µM; minimal effective concentration [34]: > 32 µM
COc1cccc(-c2cc(C(=O)O)c(O)cn2)c1	88.6 µM	inactive	Non-Toxic	Non-Toxic	Non-Toxic	Non-Toxic	Non-Toxic	Non-Toxic	Non-Toxic	Non-Toxic	Non-Toxic	16 µM	> 32 µM	> 32 µM	> 32 µM	> 32 µM	> 32 µM	> 32 µM	> 32 µM	> 32 µM	inhibition [3]: inactive; minimal effective concentration [22]: > 32 µM; minimal effective concentration [23]: > 32 µM; minimal effective concentration [24]: > 32 µM; minimal effective concentration [25]: > 32 µM; minimal effective concentration [26]: 16 µM; minimal effective concentration [27]: > 32 µM; minimal effective concentration [28]: > 32 µM; minimal effective concentration [29]: > 32 µM; minimal effective concentration [30]: > 32 µM; minimal effective concentration [31]: > 32 µM; minimal effective concentration [32]: > 32 µM; minimal effective concentration [33]: > 32 µM; minimal effective concentration [34]: > 32 µM
O=C(O)c1cc(-c2ccc(F)cc2F)ccc1O [DIFLUNISAL]	53 µM	inactive	Non-Toxic	Non-Toxic	Non-Toxic	Non-Toxic	Non-Toxic	Non-Toxic	Non-Toxic	Non-Toxic	Non-Toxic	8 µM	> 32 µM	> 32 µM	> 32 µM	> 32 µM	16 µM	> 32 µM	> 32 µM	> 32 µM	minimal effective concentration [22]: > 32 µM; minimal effective concentration [23]: > 32 µM; minimal effective concentration [24]: > 32 µM; minimal effective concentration [25]: > 32 µM; minimal effective concentration [26]: 16 µM; minimal effective concentration [27]: > 32 µM; minimal effective concentration [28]: > 32 µM; minimal effective concentration [29]: > 32 µM; minimal effective concentration [30]: > 32 µM; minimal effective concentration [31]: > 32 µM; minimal effective concentration [32]: > 32 µM; minimal effective concentration [33]: > 32 µM; minimal effective concentration [34]: > 32 µM
